Values of other authors in publication PMC11047177 (ESMO Open, 2024).
Read-outs that look alike come from different tables or passages of the source.

Experiments:
[1] = cited from earlier work
[2] = cited from earlier work; remark: listed apart in the source
[3] = patients with advanced solid tumors
[4] = advanced solid tumors, non-Hodgkin's lymphoma, or lower-risk myelodysplastic syndrome

SMILES	Preliminary evidence of antitumor activity [1]	TRAE Anemia [1, 3]	TRAE Dysgeusia [1, 3]	TRAE Fatigue [1, 3]	TRAE Nausea [1, 3]	TRAE Fatigue [2, 4]	TRAE Nausea [2, 4]	TRAE thrombocytopenia [2, 4]	Preliminary evidence of antitumor activity [2]
CC(=O)N1CCC(Nc2cc(C(=O)NC[C@H](O)CN3CCc4ccccc4C3)ncn2)CC1 [GSK3326595]	patients achieving PRs	31%	26%	39%	31%				
Nc1nc2cc(CC[C@H]3C[C@@H](n4ccc5c(N)ncnc54)[C@H](O)[C@@H]3O)ccc2cc1Br [JNJ-64619178]						32%	39%	52%	patients achieving PRs
